Test results reported in ChEMBL document CHEMBL5346927, “Discovery of a novel 1H-pyrazole- [3,4-b] pyridine-based lysine demethylase 5B inhibitor with potential anti-prostate cancer activity that perturbs the phosphoinositide 3-kinase/AKT pathway” (Eur J Med Chem, 2023).

Assays:
[1] = molecular target: T1, Lysine-specific demethylase 5B (Homo sapiens, UniProt Q9UGL1); experiment: Inhibition of KDM5B (unknown origin)
[2] = molecular target: T1, Lysine-specific demethylase 5B; experiment: Inhibition of KDM5B (unknown origin) at 10 uM relative to control
PC-3 = experiment: Antitumor activity against human PC-3 cells assessed as inhibition of cell proliferation incubated for 72 hrs by MTT assay; format: functional, cell-based; conditions: PC-3, 72 h
MGC-803 = experiment: Antitumor activity against human MGC-803 cells assessed as inhibition of cell proliferation incubated for 72 hrs by MTT assay; format: functional, cell-based; conditions: MGC-803, 72 h
MCF7 = experiment: Antitumor activity against human MCF7 cells assessed as inhibition of cell proliferation incubated for 72 hrs by MTT assay; format: functional, cell-based; conditions: MCF7, 72 h
DU-145 = experiment: Antiproliferative activity against human DU-145 cells assessed as inhibition of cell proliferation incubated for 72 hrs by MTT assay; format: functional, cell-based; conditions: DU-145, 72 h
LNCaP = experiment: Antiproliferative activity against human LNCaP cells assessed as inhibition of cell proliferation incubated for 72 hrs by MTT assay; format: functional, cell-based
HepG2 = experiment: Antitumor activity against human HepG2 cells assessed as inhibition of cell proliferation incubated for 72 hrs by MTT assay; format: functional, cell-based; conditions: HepG2, 72 h

T1 sequence (Q9UGL1 whole entry): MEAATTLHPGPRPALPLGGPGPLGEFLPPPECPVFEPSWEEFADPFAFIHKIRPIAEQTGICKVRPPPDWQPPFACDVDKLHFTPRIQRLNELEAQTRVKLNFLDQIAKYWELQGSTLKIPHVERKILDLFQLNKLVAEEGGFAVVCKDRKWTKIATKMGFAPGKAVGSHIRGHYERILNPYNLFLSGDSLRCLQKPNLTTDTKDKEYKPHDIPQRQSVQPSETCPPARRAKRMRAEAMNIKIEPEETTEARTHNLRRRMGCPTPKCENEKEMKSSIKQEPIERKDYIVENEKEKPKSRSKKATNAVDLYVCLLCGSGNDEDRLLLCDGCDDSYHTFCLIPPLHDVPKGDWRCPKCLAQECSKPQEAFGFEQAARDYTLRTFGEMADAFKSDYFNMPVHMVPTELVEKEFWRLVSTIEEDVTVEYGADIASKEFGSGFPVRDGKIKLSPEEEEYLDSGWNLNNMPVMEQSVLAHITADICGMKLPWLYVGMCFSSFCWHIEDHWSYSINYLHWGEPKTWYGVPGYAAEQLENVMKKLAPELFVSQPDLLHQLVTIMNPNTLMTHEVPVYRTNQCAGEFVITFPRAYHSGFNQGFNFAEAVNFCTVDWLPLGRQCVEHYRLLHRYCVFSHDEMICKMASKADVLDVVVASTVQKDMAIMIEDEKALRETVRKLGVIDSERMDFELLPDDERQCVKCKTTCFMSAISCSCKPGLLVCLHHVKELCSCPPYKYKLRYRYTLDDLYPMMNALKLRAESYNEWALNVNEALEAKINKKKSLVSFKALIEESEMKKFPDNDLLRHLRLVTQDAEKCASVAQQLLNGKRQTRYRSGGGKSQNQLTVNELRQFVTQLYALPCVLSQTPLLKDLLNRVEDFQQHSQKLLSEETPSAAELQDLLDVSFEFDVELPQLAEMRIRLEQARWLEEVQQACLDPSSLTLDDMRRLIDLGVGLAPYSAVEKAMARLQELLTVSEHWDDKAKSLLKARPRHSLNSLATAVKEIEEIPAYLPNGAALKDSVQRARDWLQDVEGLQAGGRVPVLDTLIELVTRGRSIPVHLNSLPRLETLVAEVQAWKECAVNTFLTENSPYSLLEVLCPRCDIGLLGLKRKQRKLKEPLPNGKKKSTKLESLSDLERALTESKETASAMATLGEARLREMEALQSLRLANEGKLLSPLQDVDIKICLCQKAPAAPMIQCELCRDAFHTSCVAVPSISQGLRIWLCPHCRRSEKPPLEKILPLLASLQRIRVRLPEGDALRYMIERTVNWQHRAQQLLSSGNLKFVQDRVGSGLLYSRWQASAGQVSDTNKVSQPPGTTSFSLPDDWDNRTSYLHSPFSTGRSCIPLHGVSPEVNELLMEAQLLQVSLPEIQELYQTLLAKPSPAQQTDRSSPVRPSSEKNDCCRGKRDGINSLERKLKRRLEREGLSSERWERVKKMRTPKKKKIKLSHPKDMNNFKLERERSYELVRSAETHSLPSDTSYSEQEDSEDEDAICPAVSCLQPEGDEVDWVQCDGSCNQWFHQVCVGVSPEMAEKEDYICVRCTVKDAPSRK

Row | Structure (SMILES) | IC50 [1] [µM] | inhibition [2] [%] | further results
1 | Cc1ccc(-n2ncc3c(C(=O)NCCN4CCN(C)CC4)cc(-c4ccc5ccccc5c4)nc32)cc1 | 1.35 | 79 | 
2 | O=C(NCc1cn(Cc2ccccc2)nn1)c1cc(-c2ccc3ccccc3c2)nc2c1cnn2-c1ccc(C(F)(F)F)cc1 | 6.27 | 63 | 
3 | CN1CCN(CCNC(=O)c2cc(-c3ccccc3)nc3c2cnn3-c2ccc(Br)cc2)CC1 | > 10 | 44 | 
4 | CC(C)c1ccc(-n2ncc3c(C(=O)NCCN4CCN(C)CC4)cc(-c4ccc5ccccc5c4)nc32)cc1 | 3.08 | 86 | 
5 | O=c1[nH]cc(F)c(=O)[nH]1 [FLUOROURACIL] |  |  | IC50 (PC-3): 8.41 µM; IC50 (MGC-803): 10.1 µM; IC50 (MCF7): 15.1 µM; IC50 (DU-145): 8.58 µM; IC50 (LNCaP): 7.93 µM
6 | Cc1ccc(-n2ncc3c(C(=O)NCc4cn(-c5ccc(C)c(C)c5)nn4)cc(-c4ccc5ccccc5c4)nc32)cc1 | 9.37 | 51 | 
7 | Cc1ccc(-n2ncc3c(C(=O)NCc4cn(Cc5ccc(C(F)(F)F)cc5)nn4)cc(-c4ccc5ccccc5c4)nc32)cc1 | 6.97 | 58 | 
8 | CC(C)c1ccc(-c2cc(C(=O)NCCN3CCN(C)CC3)c3cnn(-c4ccccc4)c3n2)cc1 | 0.132 | 87 | 
9 | CN1CCN(CCNC(=O)c2cc(-c3ccc4ccccc4c3)nc3c2cnn3-c2ccc(C(F)(F)F)cc2)CC1 | > 10 | 33 | 
10 | Cc1ccc(-n2ncc3c(C(=O)NCc4cn(Cc5ccccc5)nn4)cc(-c4ccc5ccccc5c4)nc32)cc1 | 3.93 | 72 | 
11 | Cc1ccc(-n2ncc3c(C(=O)NCc4cn(-c5ccc(F)cc5)nn4)cc(-c4ccc5ccccc5c4)nc32)cc1 | > 10 | 23 | 
12 | CN1CCN(CCNC(=O)c2cc(-c3ccccc3)nc3c2cnn3-c2ccccc2)CC1 | 0.749 | 93 | 
13 | Cc1ccc(-n2ncc3c(C(=O)NCc4cn(-c5ccc(C)cc5C)nn4)cc(-c4ccc5ccccc5c4)nc32)cc1 | > 10 | 17 | 
14 | CN1CCN(CCNC(=O)c2cc(-c3ccccc3)nc3c2cnn3-c2ccc(C(F)(F)F)cc2)CC1 | > 10 | 20 | 
15 | C#CNC(=O)c1cc(-c2ccc3ccccc3c2)nc2c1cnn2-c1ccc(C)cc1 | > 10 | 28 | 
16 | Cc1ccccc1-c1cc(C(=O)NCCN2CCN(C)CC2)c2cnn(-c3ccccc3)c2n1 | 6.15 | 60 | 
17 | CN1CCN(CCNC(=O)c2cc(-c3ccc(Cl)cc3)nc3c2cnn3-c2ccccc2)CC1 | > 10 | 43 | 
18 | CN1CCN(CCNC(=O)c2cc(-c3ccccc3)nc3c2cnn3-c2ccc(Cl)cc2)CC1 | > 10 | 40 | 
19 | Cc1cccc(-c2cc(C(=O)NCCN3CCN(C)CC3)c3cnn(-c4ccccc4)c3n2)c1 | 2.81 | 67 | 
20 | Cc1cc(C)cc(-n2ncc3c(C(=O)NCCN4CCN(C)CC4)cc(-c4ccccc4)nc32)c1 | > 10 | 20 | 
21 | Cc1ccc(-n2ncc3c(C(=O)NCc4cn(-c5cccc(F)c5)nn4)cc(-c4ccc5ccccc5c4)nc32)cc1 | 5.26 | 71 | 
22 | Cc1ccc(-n2ncc3c(C(=O)NCCN(C)C)cc(-c4ccc5ccccc5c4)nc32)cc1 | 5.42 | 64 | 
23 | O=C(O)CCNc1cc(N2CCc3ccccc3CC2)nc(-c2ccccn2)n1 |  |  | IC50 (PC-3): 20.3 µM; IC50 (MGC-803): 29.3 µM; IC50 (MCF7): 33.7 µM; IC50 (HepG2): 39.8 µM
24 | Cc1ccc(-n2ncc3c(C(=O)NCCN4CCCC4)cc(-c4ccc5ccccc5c4)nc32)cc1 | 7.35 | 58 | 
25 | Cc1ccc(-n2ncc3c(C(=O)NCCN4CCN(C)CC4)cc(-c4ccccc4)nc32)cc1C | 3.69 | 79 | 
26 | Cc1cc(C)cc(-c2cc(C(=O)NCCN3CCN(C)CC3)c3cnn(-c4ccc5ccccc5c4)c3n2)c1 | > 10 | 35 | 

Row | Structure (SMILES) | IC50 [1] [µM] | inhibition [2] [%] | further results
27 | CCc1ccc(-c2cc(C(=O)NCCN3CCN(C)CC3)c3cnn(-c4ccccc4)c3n2)cc1 | 0.376 | 83 | 
28 | Cc1cccc(-n2ncc3c(C(=O)NCCN4CCN(C)CC4)cc(-c4ccccc4)nc32)c1 | > 10 | 14 | 
29 | Cc1ccc(-n2ncc3c(C(=O)NCc4cn(-c5ccccc5)nn4)cc(-c4ccc5ccccc5c4)nc32)cc1 | 2.17 | 74 | 
30 | Cc1ccc(-n2ncc3c(C(=O)Nc4ccccc4)cc(-c4ccc5ccccc5c4)nc32)cc1 | > 10 | -1 | 
31 | CN1CCN(CCNC(=O)c2cc(-c3ccc(Br)cc3)nc3c2cnn3-c2ccccc2)CC1 | > 10 | 31 | 
32 | Cc1ccc(-n2ncc3c(C(=O)NC4CCCC4)cc(-c4ccc5ccccc5c4)nc32)cc1 | > 10 | 5 | 
33 | Cc1ccc(-n2ncc3c(C(=O)NCc4cn(-c5cccc(Br)c5)nn4)cc(-c4ccc5ccccc5c4)nc32)cc1 | 9.45 | 51 | 
34 | Cc1ccc(-n2ncc3c(C(=O)NCc4cn(Cc5ccc(C#N)cc5)nn4)cc(-c4ccc5ccccc5c4)nc32)cc1 | 6.38 | 63 | 
35 | Cc1ccccc1-n1ncc2c(C(=O)NCCN3CCN(C)CC3)cc(-c3ccc4ccccc4c3)nc21 | 3.34 | 86 | 
36 | CC(C)n1ncc2c(C(=O)NCc3cn(Cc4ccccc4)nn3)cc(-c3ccc4ccccc4c3)nc21 | 7.7 | 57 | 
37 | COc1ccc(-c2cc(C(=O)NCCN3CCN(C)CC3)c3cnn(-c4ccccc4)c3n2)cc1 | 0.237 | 88 | 
38 | Cc1ccc(-c2cc(C(=O)NCCN3CCN(C)CC3)c3cnn(-c4ccccc4)c3n2)cc1 | 0.658 | 79 | 
39 | CN1CCN(CCNC(=O)c2cc(-c3ccccc3)nc3c2cnn3-c2ccccc2Cl)CC1 | > 10 | 21 | 
40 | CN1CCN(CCNC(=O)c2cc(-c3ccc4ccccc4c3)nc3c2cnn3-c2ccc(Br)cc2)CC1 | > 10 | 46 | 
41 | CC(C)c1ccc(-n2ncc3c(C(=O)NCCN4CCN(C)CC4)cc(-c4ccccc4)nc32)cc1 | 3.99 | 83 | 
42 | Cc1ccc(-n2ncc3c(C(=O)Nc4cccnc4)cc(-c4ccc5ccccc5c4)nc32)cc1 | > 10 | -3 | 
43 | Cc1ccc(-n2ncc3c(C(=O)NCc4cn(-c5ccc(I)cc5)nn4)cc(-c4ccc5ccccc5c4)nc32)cc1 | 6.58 | 58 | 
44 | Cc1ccc(-n2ncc3c(C(=O)NCc4ccccc4)cc(-c4ccc5ccccc5c4)nc32)cc1 | > 10 | 27 | 
45 | Cc1ccc(-n2ncc3c(C(=O)NCCN4CCN(C)CC4)cc(-c4ccc5ccccc5c4)nc32)cc1C | 1.94 | 89 | 
46 | Cc1ccccc1-n1ncc2c(C(=O)NCCN3CCN(C)CC3)cc(-c3ccccc3)nc21 | 4.17 | 83 | 
47 | Cc1ccc(-n2ncc3c(C(=O)NCCN4CCN(C)CC4)cc(-c4ccccc4)nc32)cc1 | 1.67 | 95 | 
48 | CN1CCN(CCNC(=O)c2cc(-c3ccccc3)nc3c2cnn3-c2cccc(Cl)c2)CC1 | > 10 | 6 | 
49 | Cc1cccc(-n2ncc3c(C(=O)NCCN4CCN(C)CC4)cc(-c4ccc5ccccc5c4)nc32)c1 | 9.43 | 53 | 
50 | O=C(O)CNC(=O)C(=O)O [N-OXALYLGLYCINE] | 920 |  | 
51 | Cc1ccc(-n2ncc3c(C(=O)NCCN4CCCCC4)cc(-c4ccc5ccccc5c4)nc32)cc1 | > 10 | 40 | 
